# Test results from PubChem BioAssay (NCI).
#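 Step 1: Grow cells in 96-well plates. Step 2: Expose to compound for 48 hours at 5 concentrations. Step 3: Interpolate endpoints linearly; if unreached, use highest concentration. The concentration for full growth arrest is given as TGI.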
# Tests used:
# Experiment in all cases: growth of human tumour cells (NCI), 48 h
# SK-OV-3 ovarian = test system: SK-OV-3 ovarian
# PC-3 prostate = test system: PC-3 prostate
# UO-31 renal = test system: UO-31 renal
# MDA-MB-435 = test system: MDA-MB-435
# SNB-75 CNS = test system: SNB-75 CNS
# TK-10 renal = test system: TK-10 renal
# NCI-H226 lung = test system: NCI-H226 lung
# KM12 colon = test system: KM12 colon
# A549 NSCLC = test system: A549 NSCLC
# RXF 393 renal = test system: RXF 393 renal
# SN12C renal = test system: SN12C renal
# HCT-15 colon = test system: HCT-15 colon
# MCF7 breast = test system: MCF7 breast
# HCC-2998 colon = test system: HCC-2998 colon
# MOLT-4 leukemia = test system: MOLT-4 leukemia
# A498 renal = test system: A498 renal
# NCI/ADR-RES ovarian = test system: NCI/ADR-RES ovarian
# HOP-92 NSCLC = test system: HOP-92 NSCLC
# COLO 205 colon = test system: COLO 205 colon
# HOP-62 NSCLC = test system: HOP-62 NSCLC
# IGROV1 ovarian = test system: IGROV1 ovarian
# EKVX NSCLC = test system: EKVX NSCLC
# SF-295 CNS = test system: SF-295 CNS
# SK-MEL-28 melanoma = test system: SK-MEL-28 melanoma
# SW-620 colon = test system: SW-620 colon
# T-47D breast = test system: T-47D breast
# 786-0 renal = test system: 786-0 renal
# SF-268 CNS = test system: SF-268 CNS
# HCT-116 colon = test system: HCT-116 colon
# CCRF-CEM leukemia = test system: CCRF-CEM leukemia
# ACHN renal = test system: ACHN renal
# SNB-19 CNS = test system: SNB-19 CNS
# HL-60(TB) leukemia = test system: HL-60(TB) leukemia
# SF-539 CNS = test system: SF-539 CNS
# OVCAR-8 ovarian = test system: OVCAR-8 ovarian
# DU-145 prostate = test system: DU-145 prostate
# HS 578T breast = test system: HS 578T breast
# RPMI-8226 leukemia = test system: RPMI-8226 leukemia
# SK-MEL-2 melanoma = test system: SK-MEL-2 melanoma
# U251 CNS = test system: U251 CNS
# M14 melanoma = test system: M14 melanoma
# OVCAR-3 ovarian = test system: OVCAR-3 ovarian
# OVCAR-5 ovarian = test system: OVCAR-5 ovarian
# MALME-3M melanoma = test system: MALME-3M melanoma
# MDA-N = test system: MDA-N
# UACC-257 melanoma = test system: UACC-257 melanoma
# CAKI-1 renal = test system: CAKI-1 renal
# OVCAR-4 ovarian = test system: OVCAR-4 ovarian
# MDA-MB-231 breast = test system: MDA-MB-231 breast
# HT29 colon = test system: HT29 colon
# NCI-H522 lung = test system: NCI-H522 lung
# LOX IMVI melanoma = test system: LOX IMVI melanoma
# SK-MEL-5 melanoma = test system: SK-MEL-5 melanoma
# NCI-H23 lung = test system: NCI-H23 lung
# K-562 leukemia = test system: K-562 leukemia
# UACC-62 melanoma = test system: UACC-62 melanoma
# SR leukemia = test system: SR leukemia
# NCI-H460 lung = test system: NCI-H460 lung
smiles,measurement,setting,value
CCC#CCCCCCCCCC(F)C(=O)O (stereo not drawn),TGI,SK-OV-3 ovarian,> 100 µM
same,TGI,PC-3 prostate,> 100 µM
same,TGI,UO-31 renal,> 100 µM
same,TGI,MDA-MB-435,> 100 µM
same,TGI,SNB-75 CNS,> 100 µM
same,TGI,TK-10 renal,> 100 µM
same,TGI,NCI-H226 lung,> 100 µM
same,TGI,KM12 colon,> 100 µM
same,TGI,A549 NSCLC,> 100 µM
same,TGI,RXF 393 renal,> 100 µM
same,TGI,SN12C renal,> 100 µM
same,TGI,HCT-15 colon,> 100 µM
same,TGI,MCF7 breast,> 100 µM
same,TGI,HCC-2998 colon,> 100 µM
same,TGI,MOLT-4 leukemia,> 100 µM
same,TGI,A498 renal,> 100 µM
same,TGI,NCI/ADR-RES ovarian,> 100 µM
same,TGI,HOP-92 NSCLC,> 100 µM
same,TGI,COLO 205 colon,> 100 µM
same,TGI,HOP-62 NSCLC,> 100 µM
same,TGI,IGROV1 ovarian,> 100 µM
same,TGI,EKVX NSCLC,> 100 µM
same,TGI,SF-295 CNS,> 100 µM
same,TGI,SK-MEL-28 melanoma,> 100 µM
same,TGI,SW-620 colon,> 100 µM
same,TGI,T-47D breast,> 100 µM
same,TGI,786-0 renal,> 100 µM
same,TGI,SF-268 CNS,> 100 µM
same,TGI,HCT-116 colon,> 100 µM
same,TGI,CCRF-CEM leukemia,> 100 µM
same,TGI,ACHN renal,> 100 µM
same,TGI,SNB-19 CNS,> 100 µM
same,TGI,HL-60(TB) leukemia,> 100 µM
same,TGI,SF-539 CNS,> 100 µM
same,TGI,OVCAR-8 ovarian,> 100 µM
same,TGI,DU-145 prostate,> 100 µM
same,TGI,HS 578T breast,> 100 µM
same,TGI,RPMI-8226 leukemia,> 100 µM
same,TGI,SK-MEL-2 melanoma,> 100 µM
same,TGI,U251 CNS,> 100 µM
same,TGI,M14 melanoma,> 100 µM
same,TGI,OVCAR-3 ovarian,> 100 µM
same,TGI,OVCAR-5 ovarian,> 100 µM
same,TGI,MALME-3M melanoma,> 100 µM
same,TGI,MDA-N,> 100 µM
same,TGI,UACC-257 melanoma,> 100 µM
same,TGI,CAKI-1 renal,> 100 µM
same,TGI,OVCAR-4 ovarian,> 100 µM
same,TGI,MDA-MB-231 breast,> 100 µM
same,TGI,HT29 colon,> 100 µM
same,TGI,NCI-H522 lung,> 100 µM
same,TGI,LOX IMVI melanoma,> 100 µM
same,TGI,SK-MEL-5 melanoma,> 100 µM
same,TGI,NCI-H23 lung,> 100 µM
same,TGI,K-562 leukemia,> 100 µM
CC1(C)[C@@H](Cn2nnc3c(N)ncnc32)CC[C@@]1(C)CO,TGI,SK-OV-3 ovarian,> 100 µM
same,TGI,PC-3 prostate,> 100 µM
same,TGI,UO-31 renal,> 100 µM
same,TGI,MDA-MB-435,> 100 µM
same,TGI,SNB-75 CNS,> 100 µM
same,TGI,TK-10 renal,> 100 µM
same,TGI,NCI-H226 lung,> 100 µM
same,TGI,KM12 colon,> 100 µM
same,TGI,A549 NSCLC,> 100 µM
same,TGI,RXF 393 renal,> 100 µM
same,TGI,SN12C renal,> 100 µM
same,TGI,HCT-15 colon,> 100 µM
same,TGI,MCF7 breast,> 100 µM
same,TGI,HCC-2998 colon,29 µM
same,TGI,A498 renal,> 100 µM
same,TGI,UACC-62 melanoma,> 100 µM
same,TGI,NCI/ADR-RES ovarian,> 100 µM
same,TGI,HOP-92 NSCLC,> 100 µM
same,TGI,HOP-62 NSCLC,> 100 µM
same,TGI,EKVX NSCLC,> 100 µM
same,TGI,SF-295 CNS,> 100 µM
same,TGI,SK-MEL-28 melanoma,> 100 µM
same,TGI,SW-620 colon,> 100 µM
same,TGI,T-47D breast,> 100 µM
same,TGI,786-0 renal,> 100 µM
same,TGI,SF-268 CNS,> 100 µM
same,TGI,HCT-116 colon,> 100 µM
same,TGI,CCRF-CEM leukemia,> 100 µM
same,TGI,ACHN renal,> 100 µM
same,TGI,SNB-19 CNS,> 100 µM
same,TGI,SF-539 CNS,> 100 µM
same,TGI,DU-145 prostate,> 100 µM
same,TGI,HS 578T breast,> 100 µM
same,TGI,RPMI-8226 leukemia,> 100 µM
same,TGI,SK-MEL-2 melanoma,> 100 µM
same,TGI,U251 CNS,> 100 µM
same,TGI,M14 melanoma,> 100 µM
same,TGI,OVCAR-3 ovarian,> 100 µM
same,TGI,OVCAR-5 ovarian,> 100 µM
same,TGI,MDA-N,> 100 µM
same,TGI,UACC-257 melanoma,> 100 µM
same,TGI,CAKI-1 renal,> 100 µM
same,TGI,OVCAR-4 ovarian,> 100 µM
same,TGI,MDA-MB-231 breast,> 100 µM
same,TGI,LOX IMVI melanoma,> 100 µM
same,TGI,SK-MEL-5 melanoma,> 100 µM
same,TGI,K-562 leukemia,> 100 µM
Cc1c(C(=O)C(=O)c2ccccc2)c(C)c(C(=O)C(=O)c2ccccc2)c(C)c1C(=O)C(=O)c1ccccc1,TGI,SK-OV-3 ovarian,> 100 µM
same,TGI,PC-3 prostate,> 100 µM
same,TGI,UO-31 renal,> 100 µM
same,TGI,MDA-MB-435,> 100 µM
same,TGI,SNB-75 CNS,> 100 µM
same,TGI,TK-10 renal,> 100 µM
same,TGI,KM12 colon,> 100 µM
same,TGI,SR leukemia,> 100 µM
same,TGI,A549 NSCLC,> 100 µM
same,TGI,SN12C renal,> 100 µM
same,TGI,HCT-15 colon,> 100 µM
same,TGI,MCF7 breast,> 100 µM
same,TGI,HCC-2998 colon,> 100 µM
same,TGI,MOLT-4 leukemia,> 100 µM
same,TGI,NCI/ADR-RES ovarian,> 100 µM
same,TGI,COLO 205 colon,> 100 µM
same,TGI,HOP-62 NSCLC,> 100 µM
same,TGI,IGROV1 ovarian,> 100 µM
same,TGI,EKVX NSCLC,> 100 µM
same,TGI,SF-295 CNS,> 100 µM
same,TGI,SK-MEL-28 melanoma,> 100 µM
same,TGI,SW-620 colon,> 100 µM
same,TGI,T-47D breast,> 100 µM
same,TGI,786-0 renal,> 100 µM
same,TGI,SF-268 CNS,> 100 µM
same,TGI,HCT-116 colon,> 100 µM
same,TGI,CCRF-CEM leukemia,> 100 µM
same,TGI,ACHN renal,> 100 µM
same,TGI,SNB-19 CNS,> 100 µM
same,TGI,HL-60(TB) leukemia,> 100 µM
same,TGI,SF-539 CNS,> 100 µM
same,TGI,OVCAR-8 ovarian,> 100 µM
same,TGI,HS 578T breast,> 100 µM
same,TGI,RPMI-8226 leukemia,> 100 µM
same,TGI,U251 CNS,> 100 µM
same,TGI,M14 melanoma,> 100 µM
same,TGI,OVCAR-5 ovarian,> 100 µM
same,TGI,MDA-N,> 100 µM
same,TGI,UACC-257 melanoma,> 100 µM
same,TGI,OVCAR-4 ovarian,> 100 µM
same,TGI,MDA-MB-231 breast,> 100 µM
same,TGI,HT29 colon,> 100 µM
same,TGI,NCI-H460 lung,> 100 µM
same,TGI,NCI-H522 lung,> 100 µM
same,TGI,SK-MEL-5 melanoma,> 100 µM
same,TGI,K-562 leukemia,> 100 µM
